Experimental data from ChEMBL document CHEMBL3885861, “Open TG-GATES”.

Species: Rattus norvegicus
Assay: Open TG-GATES - Regimen: Single
Type: toxicity, organism-based, Sprague-Dawley
Design: regimen Single, gender Male, age 6 weeks
Conditions: in vivo, po, route gavage; for gamma-GTP / ALP / ALT / AST / BUN / CRE / Ca / Cl / DBIL / GLC / IP / K / LDH / Na / PL / RALB / TBIL / TC / TG / TP: tissue Plasma; for APTT / Bas / Eos / Fbg / Hb / Ht / Lym / MCH / MCHC / MCV / Mono / Neu / PT / Plat / RBC / Ret: tissue Blood; for KIDNEY_L / KIDNEY_R / KIDNEY_TOTAL: tissue Kidney; for LIVER: tissue Liver
[1] = 300 mg/kg, 3 h, dose level Middle
[2] = 300 mg/kg, 6 h, dose level Middle
[3] = 300 mg/kg, 9 h, dose level Middle
[4] = 300 mg/kg, 24 h, dose level Middle
[5] = 1000 mg/kg, 3 h, dose level High
[6] = 1000 mg/kg, 6 h, dose level High
[7] = 1000 mg/kg, 9 h, dose level High
[8] = 1000 mg/kg, 24 h, dose level High

## COc1ccc2[nH]c([S+]([O-])Cc3ncc(C)c(OC)c3C)nc2c1 (configuration not stated) [OMEPRAZOLE]
100 mg/kg, 24 h, dose level Low
  gamma-GTP: 1.2 IU/L
[1]
  TERMINAL_BW: 223.6 g
  APTT: 18.7 s
  Bas: 0%
  Eos: 1%
  Fbg: 216.4 mg/dL
  Hb: 12.4 g/dL
  Ht: 36.4%
  Lym: 73.2%
  MCH: 21.2 pg
  MCHC: 33.9%
  MCV: 62.3 fL
  Mono: 3.4%
  Neu: 22.2%
  PT: 12.7 s
  Plat: 128.9 x10_4/uL
  RBC: 584.6 x10_4/ul
  Ret: 8.2%
  KIDNEY_L: 1 g
  KIDNEY_R: 1 g
  KIDNEY_TOTAL: 1.9 g
  LIVER: 9.8 g
  ALP: 904.2 IU/L
  ALT: 31.8 IU/L
  AST: 67.2 IU/L
  BUN: 10.2 mg/dL
  CRE: 0.4 mg/dL
  Ca: 10.6 mg/dL
  Cl: 100.6 meq/L
  DBIL: 0.064 mg/dL
  GLC: 194.8 mg/dL
  IP: 9.4 mg/dL
  K: 3.9 meq/L
  LDH: 202 IU/L
  Na: 139.6 meq/L
  PL: 146.4 mg/dL
  RALB: 3.3 g/dL
  TBIL: 0.1 mg/dL
  TC: 80.2 mg/dL
  TG: 70.2 mg/dL
  TP: 5.4 g/dL
  gamma-GTP: 1.6 IU/L
[2]
  TERMINAL_BW: 217.5 g
  APTT: 19 s
  Bas: 0%
  Eos: 1%
  Fbg: 216.4 mg/dL
  Hb: 13.1 g/dL
  Ht: 38.3%
  Lym: 74.4%
  MCH: 21.2 pg
  MCHC: 34.3%
  MCV: 61.8 fL
  Mono: 3.8%
  Neu: 20.6%
  PT: 12.9 s
  Plat: 124 x10_4/uL
  RBC: 620.6 x10_4/ul
  Ret: 6.5%
  KIDNEY_L: 1 g
  KIDNEY_R: 1 g
  KIDNEY_TOTAL: 2 g
  LIVER: 9.4 g
  ALP: 913.6 IU/L
  AST: 66 IU/L
  BUN: 10 mg/dL
  CRE: 0.4 mg/dL
  Ca: 10.3 mg/dL
  Cl: 100.8 meq/L
  DBIL: 0.066 mg/dL
  GLC: 192 mg/dL
  IP: 9.7 mg/dL
  K: 4.1 meq/L
  LDH: 171.2 IU/L
  Na: 140 meq/L
  PL: 145.6 mg/dL
  RALB: 3.3 g/dL
  TBIL: 0.1 mg/dL
  TC: 72.8 mg/dL
  TG: 74.4 mg/dL
  TP: 5.5 g/dL
  gamma-GTP: 1.4 IU/L
[3]
  TERMINAL_BW: 218.4 g
  APTT: 22.1 s
  Bas: 0%
  Eos: 1%
  Fbg: 223.8 mg/dL
  Hb: 12.7 g/dL
  Ht: 37%
  Lym: 76.6%
  MCH: 21.4 pg
  MCHC: 34.3%
  MCV: 62.4 fL
  Mono: 3.2%
  Neu: 18.4%
  PT: 12.9 s
  Plat: 117.1 x10_4/uL
  RBC: 593.4 x10_4/ul
  Ret: 6.7%
  KIDNEY_L: 0.9 g
  KIDNEY_R: 0.9 g
  KIDNEY_TOTAL: 1.9 g
  LIVER: 9.1 g
  ALP: 761.6 IU/L
  ALT: 27.6 IU/L
  AST: 62.8 IU/L
  BUN: 8.2 mg/dL
  CRE: 0.3 mg/dL
  Ca: 10.2 mg/dL
  Cl: 101.4 meq/L
  DBIL: 0.068 mg/dL
  GLC: 195.4 mg/dL
  IP: 9.5 mg/dL
  K: 3.9 meq/L
  LDH: 175.8 IU/L
  Na: 140.8 meq/L
  PL: 133.2 mg/dL
  RALB: 3.4 g/dL
  TBIL: 0.1 mg/dL
  TC: 70.4 mg/dL
  TG: 74 mg/dL
  TP: 5.4 g/dL
  gamma-GTP: 0.8 IU/L
[4]
  TERMINAL_BW: 229.5 g
  APTT: 20.6 s
  Bas: 0%
  Eos: 1%
  Fbg: 230.2 mg/dL
  Hb: 13.5 g/dL
  Ht: 39.6%
  Lym: 81.2%
  MCH: 20.6 pg
  MCHC: 34.1%
  MCV: 60.4 fL
  Mono: 3%
  Neu: 14.6%
  PT: 12.7 s
  Plat: 129 x10_4/uL
  RBC: 654.6 x10_4/ul
  Ret: 6.1%
  KIDNEY_L: 1 g
  KIDNEY_R: 1 g
  KIDNEY_TOTAL: 2 g
  LIVER: 11.8 g
  ALP: 1087 IU/L
  ALT: 35 IU/L
  AST: 65.8 IU/L
  BUN: 15.4 mg/dL
  CRE: 0.4 mg/dL
  Ca: 10.3 mg/dL
  Cl: 101 meq/L
  DBIL: 0.1 mg/dL
  GLC: 205.2 mg/dL
  IP: 9.4 mg/dL
  K: 3.8 meq/L
  LDH: 207 IU/L
  Na: 140.8 meq/L
  PL: 146.4 mg/dL
  RALB: 3.3 g/dL
  TBIL: 0.2 mg/dL
  TC: 72 mg/dL
  TG: 139.4 mg/dL
  TP: 5.5 g/dL
  gamma-GTP: 1 IU/L
[5]
  TERMINAL_BW: 220.8 g
  APTT: 18.6 s
  Bas: 0%
  Eos: 1%
  Fbg: 201.8 mg/dL
  Hb: 12.4 g/dL
  Ht: 36.3%
  Lym: 74.8%
  MCH: 21.2 pg
  MCHC: 34.3%
  MCV: 61.9 fL
  Mono: 3%
  Neu: 21%
  PT: 13.3 s
  Plat: 120.5 x10_4/uL
  RBC: 586.6 x10_4/ul
  Ret: 6.8%
  KIDNEY_L: 1 g
  KIDNEY_R: 1 g
  KIDNEY_TOTAL: 2 g
  LIVER: 9.8 g
  ALP: 966.6 IU/L
  ALT: 31.6 IU/L
  AST: 66 IU/L
  BUN: 11.2 mg/dL
  CRE: 0.4 mg/dL
  Ca: 10.2 mg/dL
  Cl: 100.6 meq/L
  DBIL: 0.072 mg/dL
  GLC: 208.8 mg/dL
  IP: 9.2 mg/dL
  K: 4 meq/L
  LDH: 174.6 IU/L
  Na: 140 meq/L
  PL: 140.8 mg/dL
  RALB: 3.3 g/dL
  TBIL: 0.1 mg/dL
  TC: 73.4 mg/dL
  TG: 56.8 mg/dL
  TP: 5.4 g/dL
  gamma-GTP: 0.8 IU/L
[6]
  TERMINAL_BW: 221 g
  APTT: 19.3 s
  Bas: 0%
  Eos: 1.2%
  Fbg: 208.8 mg/dL
  Hb: 12.9 g/dL
  Ht: 37.2%
  Lym: 70.6%
  MCH: 21.5 pg
  MCHC: 34.9%
  MCV: 61.8 fL
  Mono: 4.4%
  Neu: 23.2%
  PT: 13.2 s
  Plat: 129.9 x10_4/uL
  RBC: 602.4 x10_4/ul
  Ret: 7.1%
  KIDNEY_L: 1 g
  KIDNEY_R: 1.1 g
  KIDNEY_TOTAL: 2.1 g
  LIVER: 9.8 g
  ALP: 940.2 IU/L
  ALT: 27 IU/L
  AST: 65.6 IU/L
  BUN: 10 mg/dL
  CRE: 0.4 mg/dL
  Ca: 10.2 mg/dL
  Cl: 100.8 meq/L
  DBIL: 0.072 mg/dL
  GLC: 192.2 mg/dL
  IP: 9.7 mg/dL
  K: 4 meq/L
  LDH: 178.8 IU/L
  Na: 139.8 meq/L
  PL: 145.8 mg/dL
  RALB: 3.3 g/dL
  TBIL: 0.1 mg/dL
  TC: 78.8 mg/dL
  TG: 57 mg/dL
  TP: 5.5 g/dL
  gamma-GTP: 1.2 IU/L
[7]
  TERMINAL_BW: 219.2 g
  APTT: 18.3 s
  Bas: 0%
  Eos: 1%
  Fbg: 228.6 mg/dL
  Hb: 12.8 g/dL
  Ht: 37.1%
  Lym: 75.8%
  MCH: 21.3 pg
  MCHC: 34.6%
  MCV: 61.4 fL
  Mono: 3.4%
  Neu: 19%
  PT: 12.9 s
  Plat: 120.2 x10_4/uL
  RBC: 603.8 x10_4/ul
  Ret: 6.4%
  KIDNEY_L: 1 g
  KIDNEY_R: 1 g
  KIDNEY_TOTAL: 1.9 g
  LIVER: 9.6 g
  ALP: 705 IU/L
  AST: 62 IU/L
  BUN: 8 mg/dL
  CRE: 0.3 mg/dL
  Ca: 10.2 mg/dL
  Cl: 100.8 meq/L
  DBIL: 0.08 mg/dL
  GLC: 195.2 mg/dL
  IP: 10 mg/dL
  K: 3.8 meq/L
  LDH: 174.4 IU/L
  Na: 141 meq/L
  PL: 153.2 mg/dL
  RALB: 3.5 g/dL
  TBIL: 0.1 mg/dL
  TC: 80.4 mg/dL
  TG: 59.8 mg/dL
  TP: 5.5 g/dL
  gamma-GTP: 0.6 IU/L
[8]
  TERMINAL_BW: 226 g
  APTT: 19.9 s
  Bas: 0%
  Eos: 1%
  Fbg: 207.8 mg/dL
  Hb: 12.9 g/dL
  Ht: 37.7%
  Lym: 81.4%
  MCH: 21 pg
  MCHC: 34.1%
  MCV: 61.6 fL
  Mono: 4%
  Neu: 13.4%
  PT: 13.1 s
  Plat: 129.5 x10_4/uL
  RBC: 613.8 x10_4/ul
  Ret: 6.2%
  KIDNEY_L: 1 g
  KIDNEY_R: 1 g
  KIDNEY_TOTAL: 2.1 g
  LIVER: 12.1 g
  ALP: 924 IU/L
  ALT: 32.6 IU/L
  AST: 64.8 IU/L
  BUN: 11.2 mg/dL
  CRE: 0.4 mg/dL
  Ca: 10.1 mg/dL
  Cl: 100.6 meq/L
  DBIL: 0.1 mg/dL
  GLC: 200.4 mg/dL
  IP: 9.2 mg/dL
  K: 4.2 meq/L
  LDH: 230 IU/L
  Na: 140.6 meq/L
  PL: 162.8 mg/dL
  RALB: 3.4 g/dL
  TBIL: 0.2 mg/dL
  TC: 83.4 mg/dL
  TG: 169.2 mg/dL
  TP: 5.4 g/dL
  gamma-GTP: 1 IU/L
